According to ChEMBL document CHEMBL4630902 (2021):

Assays:
[1] = biological target: Alpha-2A adrenergic receptor (Homo sapiens) (UniProt P08913); settings: Compound concentration 10.0 uM
[2] = biological target: Histamine H3 receptor (Homo sapiens) (UniProt Q9Y5N1); settings: Compound concentration 10.0 uM
[3] = biological target: Muscarinic acetylcholine receptor M1 (Homo sapiens) (UniProt P11229); settings: Compound concentration 10.0 uM
[4] = biological target: 5-hydroxytryptamine receptor 3A (Homo sapiens) (UniProt P46098); settings: Compound concentration 10.0 uM
Chain of 5-hydroxytryptamine receptor 3A (Homo sapiens) (P46098 whole entry): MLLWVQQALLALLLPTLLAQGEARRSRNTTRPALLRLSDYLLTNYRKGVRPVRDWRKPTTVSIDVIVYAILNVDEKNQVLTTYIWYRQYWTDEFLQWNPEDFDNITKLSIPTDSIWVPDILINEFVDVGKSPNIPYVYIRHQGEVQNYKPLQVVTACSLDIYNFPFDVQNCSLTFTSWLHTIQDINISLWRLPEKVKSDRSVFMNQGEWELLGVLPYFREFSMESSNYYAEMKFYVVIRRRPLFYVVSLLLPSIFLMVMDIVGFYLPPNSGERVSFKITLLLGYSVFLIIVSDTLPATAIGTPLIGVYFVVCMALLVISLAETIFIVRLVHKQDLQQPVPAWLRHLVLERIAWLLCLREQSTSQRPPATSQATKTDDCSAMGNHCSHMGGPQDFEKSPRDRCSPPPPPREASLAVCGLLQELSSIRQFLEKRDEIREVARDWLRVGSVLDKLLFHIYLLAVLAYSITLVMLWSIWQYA

[5] = biological target: D(1A) dopamine receptor (Homo sapiens) (UniProt P21728); settings: Compound concentration 10.0 uM
Chain of D(1A) dopamine receptor (Homo sapiens) (P21728 whole entry): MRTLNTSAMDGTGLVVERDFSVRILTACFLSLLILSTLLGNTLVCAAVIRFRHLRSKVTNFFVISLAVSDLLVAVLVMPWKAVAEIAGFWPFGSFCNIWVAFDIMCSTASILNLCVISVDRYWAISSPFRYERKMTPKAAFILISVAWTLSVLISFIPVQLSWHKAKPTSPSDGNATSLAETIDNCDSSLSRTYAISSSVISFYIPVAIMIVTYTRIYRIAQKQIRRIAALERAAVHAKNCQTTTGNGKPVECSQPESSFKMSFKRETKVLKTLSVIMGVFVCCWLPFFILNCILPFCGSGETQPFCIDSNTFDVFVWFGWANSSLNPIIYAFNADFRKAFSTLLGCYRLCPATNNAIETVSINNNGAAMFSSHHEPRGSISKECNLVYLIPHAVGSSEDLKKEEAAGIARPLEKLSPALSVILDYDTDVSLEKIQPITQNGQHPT

[6] = biological target: Histamine H1 receptor (Homo sapiens) (UniProt P35367); settings: Compound concentration 10.0 uM
[7] = biological target: D(4) dopamine receptor (Homo sapiens) (UniProt P21917); settings: Compound concentration 10.0 uM
Chain of D(4) dopamine receptor (Homo sapiens) (P21917 whole entry): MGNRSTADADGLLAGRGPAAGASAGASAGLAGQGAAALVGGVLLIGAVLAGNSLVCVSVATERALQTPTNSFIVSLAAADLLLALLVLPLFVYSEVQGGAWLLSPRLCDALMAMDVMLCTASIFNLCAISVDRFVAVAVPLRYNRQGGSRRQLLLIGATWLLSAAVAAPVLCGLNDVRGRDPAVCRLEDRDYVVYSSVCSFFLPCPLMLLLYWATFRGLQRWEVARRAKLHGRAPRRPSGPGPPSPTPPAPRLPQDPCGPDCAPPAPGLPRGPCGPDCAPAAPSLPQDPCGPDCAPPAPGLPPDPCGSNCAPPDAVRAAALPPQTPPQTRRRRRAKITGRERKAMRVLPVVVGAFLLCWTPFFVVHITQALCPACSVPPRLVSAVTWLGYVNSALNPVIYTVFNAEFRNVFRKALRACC

[8] = biological target: Alpha-1B adrenergic receptor (Homo sapiens) (UniProt P35368); settings: Compound concentration 10.0 uM
Chain of Alpha-1B adrenergic receptor (Homo sapiens) (P35368 whole entry): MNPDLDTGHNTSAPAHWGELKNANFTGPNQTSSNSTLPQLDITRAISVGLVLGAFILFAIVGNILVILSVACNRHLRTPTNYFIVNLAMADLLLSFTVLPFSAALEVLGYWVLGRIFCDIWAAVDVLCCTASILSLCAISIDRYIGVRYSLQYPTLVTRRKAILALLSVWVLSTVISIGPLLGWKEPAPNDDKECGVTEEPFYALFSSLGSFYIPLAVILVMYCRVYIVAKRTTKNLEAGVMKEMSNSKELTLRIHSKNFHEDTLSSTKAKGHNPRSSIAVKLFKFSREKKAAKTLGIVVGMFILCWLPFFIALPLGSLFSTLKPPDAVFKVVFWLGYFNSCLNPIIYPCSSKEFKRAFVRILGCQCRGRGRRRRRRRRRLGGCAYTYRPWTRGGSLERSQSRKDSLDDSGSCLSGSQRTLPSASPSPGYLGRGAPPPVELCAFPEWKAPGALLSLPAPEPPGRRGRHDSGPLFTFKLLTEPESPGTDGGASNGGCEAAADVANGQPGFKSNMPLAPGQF

[9] = biological target: Alpha-1A adrenergic receptor (Homo sapiens) (UniProt P35348); settings: Compound concentration 10.0 uM
[10] = biological target: T1, GABA-A receptor; anion channel (Rattus norvegicus) (UniProt O09028+P15431+P18506+P18508+P19969+P20236+P23574+P23576+P28471+P28473+P30191+P62813+P63079+P63138+Q91ZM7+Q9ES14); settings: Compound concentration 10.0 uM
[11] = biological target: 5-hydroxytryptamine receptor 1D (Homo sapiens) (UniProt P28221); settings: Compound concentration 10.0 uM
Chain of 5-hydroxytryptamine receptor 1D (Homo sapiens) (P28221 whole entry): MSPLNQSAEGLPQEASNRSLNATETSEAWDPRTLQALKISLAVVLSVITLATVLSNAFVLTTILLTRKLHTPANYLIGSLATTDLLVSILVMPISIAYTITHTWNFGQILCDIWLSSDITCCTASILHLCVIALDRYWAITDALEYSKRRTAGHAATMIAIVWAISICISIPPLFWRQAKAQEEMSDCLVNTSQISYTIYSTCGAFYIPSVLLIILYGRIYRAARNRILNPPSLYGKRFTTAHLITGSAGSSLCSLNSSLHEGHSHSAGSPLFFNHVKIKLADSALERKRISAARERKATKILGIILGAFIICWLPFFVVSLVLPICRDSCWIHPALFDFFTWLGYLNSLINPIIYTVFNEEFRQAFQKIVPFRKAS

[12] = biological target: Muscarinic acetylcholine receptor M3 (Homo sapiens) (UniProt P20309); settings: Compound concentration 10.0 uM
[13] = biological target: D(1B) dopamine receptor (Homo sapiens) (UniProt P21918); settings: Compound concentration 10.0 uM
Chain of D(1B) dopamine receptor (Homo sapiens) (P21918 whole entry): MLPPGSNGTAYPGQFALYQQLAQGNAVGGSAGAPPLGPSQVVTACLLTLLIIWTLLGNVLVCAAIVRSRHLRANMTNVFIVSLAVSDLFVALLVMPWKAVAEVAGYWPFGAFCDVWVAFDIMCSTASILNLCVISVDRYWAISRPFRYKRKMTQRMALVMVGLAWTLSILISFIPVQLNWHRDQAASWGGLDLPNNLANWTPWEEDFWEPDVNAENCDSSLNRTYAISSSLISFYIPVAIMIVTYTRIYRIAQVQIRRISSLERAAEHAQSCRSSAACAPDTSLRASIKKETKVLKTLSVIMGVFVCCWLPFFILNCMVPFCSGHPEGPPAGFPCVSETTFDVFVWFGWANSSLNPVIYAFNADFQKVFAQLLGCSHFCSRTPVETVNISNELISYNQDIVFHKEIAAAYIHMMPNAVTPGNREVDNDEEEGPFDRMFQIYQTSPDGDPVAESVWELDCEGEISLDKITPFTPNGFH

[14] = biological target: Alpha-1D adrenergic receptor (Homo sapiens) (UniProt P25100); settings: Compound concentration 10.0 uM
[15] = biological target: 5-hydroxytryptamine receptor 6 (Homo sapiens) (UniProt P50406); settings: Compound concentration 10.0 uM
[16] = biological target: 5-hydroxytryptamine receptor 1A (Homo sapiens) (UniProt P08908); settings: Compound concentration 10.0 uM
Chain of 5-hydroxytryptamine receptor 1A (Homo sapiens) (P08908 whole entry): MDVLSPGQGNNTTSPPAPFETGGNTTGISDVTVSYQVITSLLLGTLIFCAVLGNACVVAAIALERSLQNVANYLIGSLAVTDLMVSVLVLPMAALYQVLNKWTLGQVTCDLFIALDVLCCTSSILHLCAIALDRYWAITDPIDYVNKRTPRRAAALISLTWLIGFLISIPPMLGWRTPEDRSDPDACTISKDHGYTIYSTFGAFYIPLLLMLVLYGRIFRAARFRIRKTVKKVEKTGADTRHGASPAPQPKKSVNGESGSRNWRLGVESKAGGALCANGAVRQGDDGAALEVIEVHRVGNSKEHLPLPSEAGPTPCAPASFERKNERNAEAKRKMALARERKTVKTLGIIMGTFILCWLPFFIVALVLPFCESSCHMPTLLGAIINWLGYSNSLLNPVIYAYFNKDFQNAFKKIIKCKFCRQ

[17] = biological target: Muscarinic acetylcholine receptor M4 (Homo sapiens) (UniProt P08173); settings: Compound concentration 10.0 uM
[18] = biological target: Mu-type opioid receptor (Homo sapiens) (UniProt P35372); settings: Compound concentration 10.0 uM
Chain of Mu-type opioid receptor (Homo sapiens) (P35372 whole entry): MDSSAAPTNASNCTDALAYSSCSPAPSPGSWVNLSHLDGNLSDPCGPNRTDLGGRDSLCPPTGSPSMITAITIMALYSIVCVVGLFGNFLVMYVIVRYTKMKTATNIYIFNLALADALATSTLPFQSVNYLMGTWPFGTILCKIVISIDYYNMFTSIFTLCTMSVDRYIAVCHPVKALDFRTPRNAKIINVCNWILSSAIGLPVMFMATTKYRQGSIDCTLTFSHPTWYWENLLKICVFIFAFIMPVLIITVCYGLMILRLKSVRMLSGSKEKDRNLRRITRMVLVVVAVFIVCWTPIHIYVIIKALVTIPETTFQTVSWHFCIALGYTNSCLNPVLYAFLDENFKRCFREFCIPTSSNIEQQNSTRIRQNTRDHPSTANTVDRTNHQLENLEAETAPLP

[19] = biological target: 5-hydroxytryptamine receptor 7 (Homo sapiens) (UniProt P34969); settings: Compound concentration 10.0 uM
[20] = biological target: Beta-3 adrenergic receptor (Homo sapiens) (UniProt P13945); settings: Compound concentration 10.0 uM
[21] = biological target: 5-hydroxytryptamine receptor 1E (Homo sapiens) (UniProt P28566); settings: Compound concentration 10.0 uM
[22] = biological target: 5-hydroxytryptamine receptor 2A (Homo sapiens) (UniProt P28223); settings: Compound concentration 10.0 uM
[23] = biological target: Kappa-type opioid receptor (Homo sapiens) (UniProt P41145); settings: Compound concentration 10.0 uM
[24] = biological target: Muscarinic acetylcholine receptor M5 (Homo sapiens) (UniProt P08912); settings: Compound concentration 10.0 uM
Chain of Muscarinic acetylcholine receptor M5 (Homo sapiens) (P08912 whole entry): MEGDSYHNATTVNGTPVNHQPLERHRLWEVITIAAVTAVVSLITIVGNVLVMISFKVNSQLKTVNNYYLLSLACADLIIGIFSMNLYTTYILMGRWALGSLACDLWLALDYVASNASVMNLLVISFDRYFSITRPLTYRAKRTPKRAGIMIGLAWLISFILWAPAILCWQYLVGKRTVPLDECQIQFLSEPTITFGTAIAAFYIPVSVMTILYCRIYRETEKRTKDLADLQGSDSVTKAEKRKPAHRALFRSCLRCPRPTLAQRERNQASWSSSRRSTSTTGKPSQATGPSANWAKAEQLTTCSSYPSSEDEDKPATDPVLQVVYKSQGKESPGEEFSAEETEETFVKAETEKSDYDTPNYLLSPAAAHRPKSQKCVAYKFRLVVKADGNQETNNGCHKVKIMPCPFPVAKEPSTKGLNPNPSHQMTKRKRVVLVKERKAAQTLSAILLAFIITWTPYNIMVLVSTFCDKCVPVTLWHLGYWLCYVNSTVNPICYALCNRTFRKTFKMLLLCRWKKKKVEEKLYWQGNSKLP

[25] = biological target: D(3) dopamine receptor (Homo sapiens) (UniProt P35462); settings: Compound concentration 10.0 uM
[26] = biological target: Alpha-2C adrenergic receptor (Homo sapiens) (UniProt P18825); settings: Compound concentration 10.0 uM
[27] = biological target: Beta-2 adrenergic receptor (Homo sapiens) (UniProt P07550); settings: Compound concentration 10.0 uM
Chain of Beta-2 adrenergic receptor (Homo sapiens) (P07550 whole entry, looked up): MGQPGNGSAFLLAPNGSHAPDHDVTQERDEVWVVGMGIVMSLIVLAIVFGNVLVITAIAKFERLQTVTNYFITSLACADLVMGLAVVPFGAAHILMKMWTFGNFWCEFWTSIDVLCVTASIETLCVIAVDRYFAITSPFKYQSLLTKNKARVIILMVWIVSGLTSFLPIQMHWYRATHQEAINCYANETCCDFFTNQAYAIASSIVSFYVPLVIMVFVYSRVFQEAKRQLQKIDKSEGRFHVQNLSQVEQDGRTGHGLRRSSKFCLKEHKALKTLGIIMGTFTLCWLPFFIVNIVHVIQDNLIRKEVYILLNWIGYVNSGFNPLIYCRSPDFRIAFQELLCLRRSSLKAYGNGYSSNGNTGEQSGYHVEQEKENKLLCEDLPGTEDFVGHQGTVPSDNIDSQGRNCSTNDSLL

[28] = biological target: Sigma non-opioid intracellular receptor 1 (Homo sapiens) (UniProt Q99720); settings: Compound concentration 10.0 uM
[29] = biological target: T1, GABA-A receptor; anion channel (Rattus norvegicus); settings: Compound concentration 10.0 uM; remark: listed apart in the source
[30] = biological target: 5-hydroxytryptamine receptor 1B (Homo sapiens) (UniProt P28222); settings: Compound concentration 10.0 uM
[31] = biological target: Muscarinic acetylcholine receptor M2 (Homo sapiens) (UniProt P08172); settings: Compound concentration 10.0 uM
[32] = biological target: Alpha-2B adrenergic receptor (Homo sapiens) (UniProt P18089); settings: Compound concentration 10.0 uM
[33] = biological target: Histamine H2 receptor (Homo sapiens) (UniProt P25021); settings: Compound concentration 10.0 uM
[34] = biological target: Sigma intracellular receptor 2 (Homo sapiens) (UniProt Q5BJF2); settings: Compound concentration 10.0 uM
[35] = biological target: Delta-type opioid receptor (Homo sapiens) (UniProt P41143); settings: Compound concentration 10.0 uM
[36] = biological target: Beta-1 adrenergic receptor (Homo sapiens) (UniProt P08588); settings: Compound concentration 10.0 uM
[37] = biological target: Sodium-dependent noradrenaline transporter (Homo sapiens) (UniProt P23975); settings: Compound concentration 10.0 uM
[38] = biological target: Sodium-dependent serotonin transporter (Homo sapiens) (UniProt P31645); settings: Compound concentration 10.0 uM
[39] = biological target: 5-hydroxytryptamine receptor 5A (Homo sapiens) (UniProt P47898); settings: Compound concentration 10.0 uM
[40] = biological target: 5-hydroxytryptamine receptor 2C (Homo sapiens) (UniProt P28335); settings: Compound concentration 10.0 uM
[41] = BET mutant TR-FRET assay (BRDT BD2); parameters: species or system Homo sapiens
[42] = biological target: 5-hydroxytryptamine receptor 2B (Homo sapiens) (UniProt P41595); settings: Compound concentration 10.0 uM
[43] = biological target: Histamine H4 receptor (Homo sapiens) (UniProt Q9H3N8); settings: Compound concentration 10.0 uM
[44] = biological target: D(2) dopamine receptor (Homo sapiens) (UniProt P14416); settings: Compound concentration 10.0 uM
Rattus norvegicus = species: Rattus norvegicus; settings: Compound concentration 10.0 uM

Chain of Alpha-2A adrenergic receptor (Homo sapiens) (P08913 whole entry): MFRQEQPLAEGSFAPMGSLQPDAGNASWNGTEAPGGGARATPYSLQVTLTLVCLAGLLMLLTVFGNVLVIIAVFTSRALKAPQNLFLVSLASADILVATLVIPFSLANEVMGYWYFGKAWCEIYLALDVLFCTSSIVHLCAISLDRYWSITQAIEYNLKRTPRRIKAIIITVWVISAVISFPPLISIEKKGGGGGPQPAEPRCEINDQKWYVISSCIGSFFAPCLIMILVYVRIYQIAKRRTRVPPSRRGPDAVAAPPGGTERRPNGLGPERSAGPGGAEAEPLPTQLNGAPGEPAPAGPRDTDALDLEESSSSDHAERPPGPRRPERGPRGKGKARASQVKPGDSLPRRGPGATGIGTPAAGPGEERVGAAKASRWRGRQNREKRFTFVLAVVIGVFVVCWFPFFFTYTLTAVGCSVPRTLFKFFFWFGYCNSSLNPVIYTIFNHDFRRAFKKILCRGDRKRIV

Structure (SMILES): CNC(=O)c1cc(C(=O)N[C@H]2[C@@H]3COC[C@@H]32)cc2c1O[C@@H](CF)[C@@H]2c1ccccc1
- inhibition [1]: 13.8%
- inhibition [2]: -5.65%
- inhibition [3]: 12.1%
- inhibition [4]: 10.6%
- inhibition [5]: -6.73%
- inhibition [6]: -1.58%
- inhibition [7]: 17.7%
- inhibition [8]: -0.98%
- inhibition [9]: 7.39%
- inhibition [10]: 74.2%
- inhibition [11]: -8.07%
- inhibition [12]: 12.6%
- inhibition [13]: -7.16%
- inhibition [14]: -7.87%
- inhibition [15]: -1.21%
- inhibition [16]: 14.9%
- inhibition [17]: 6.19%
- inhibition [18]: 4.77%
- inhibition [19]: 1.31%
- inhibition [20]: 31%
- inhibition [21]: 0.03%
- inhibition [22]: 11.6%
- inhibition [23]: 41.1%
- inhibition [24]: 18%
- inhibition [25]: 4.11%
- inhibition [26]: 7.66%
- inhibition [27]: 9.35%
- inhibition [28]: 10.2%
- inhibition [29]: 14.5%
- inhibition [30]: -8.28%
- inhibition [31]: -7.3%
- inhibition [32]: 22.8%
- inhibition [33]: 4.49%
- inhibition [34]: 35.6%
- inhibition [35]: 17.1%
- inhibition [36]: 6.93%

Structure (SMILES): CNC(=O)c1cc(C(=O)N[C@H]2[C@@H]3COC[C@@H]32)cc2c1O[C@H](CF)[C@H]2c1ccccc1 [GSK973]
- inhibition [1]: 1.67%
- inhibition [2]: -9.57%
- inhibition [37]: 0.32%
- inhibition [38]: 27.2%
- inhibition [4]: 20.2%
- inhibition [5]: 9.7%
- inhibition [7]: 81.6%
- inhibition [8]: 1.49%
- inhibition [39]: 12.5%
- inhibition [9]: -4.55%
- inhibition [40]: 22.2%
- inhibition [10]: 30.2%
- pIC50 [41]: 7.4
- inhibition [11]: -5.14%
- inhibition [12]: 11.2%
- inhibition [13]: 28.3%
- inhibition [14]: 3.51%
- inhibition [15]: 16.8%
- inhibition [16]: 8.96%
- inhibition [17]: 2.78%
- inhibition [18]: -5.14%
- inhibition [19]: 13.6%
- inhibition [42]: 28.2%
- inhibition [20]: 15.5%
- inhibition [43]: 9.36%
- inhibition [22]: 13.4%
- inhibition [44]: 60.9%
- inhibition [23]: 1.22%
- inhibition [24]: 2.23%
- inhibition [25]: 81.8%
- inhibition [26]: 8.26%
- inhibition [27]: 17.9%
- inhibition [28]: 28.4%
- inhibition [29]: 4.07%
- inhibition [30]: -0.1%
- inhibition [31]: -5.52%
- inhibition [32]: 12.5%
- inhibition [33]: -3.94%
- inhibition (Rattus norvegicus): 9.06%
- inhibition [34]: 14.3%
- inhibition [35]: 2.46%
- inhibition [36]: 6.03%
